Results taken from ChEMBL document CHEMBL5329222, “Discovery of novel tubulin CBSI (R)-9k from the indanone scaffold for the treatment of colorectal cancer” (RSC Med Chem, 2023).
The source made the active and inactive calls. The rule behind the calls is not given here.

How the values were obtained:
[1] = tested on: A2780; assay: Antiproliferative activity against human A2780 cells assessed as inhibition of cell growth incubated for 1.5 hrs by CCK-8 assay; assay type: functional, cell-based
[2] = tested on: HCT-116; assay: Antiproliferative activity against human HCT-116 cells assessed as inhibition of cell growth incubated for 1.5 hrs by CCK-8 assay; assay type: functional, cell-based; conditions: HCT-116, 1.5 h
[3] = tested on: HeLa; assay: Antiproliferative activity against human HeLa cells assessed as inhibition of cell growth incubated for 1.5 hrs by CCK-8 assay; assay type: functional, cell-based
[4] = molecular target: Tubulin beta (Homo sapiens) (UniProt P68371+Q9H4B7+Q13509+P04350+Q3ZCM7+P07437+Q13885+Q9BVA1+Q9BUF5+A6NNZ2); assay: Binding affinity to beta-tubulin colchicine binding site in human HCT-116 cells assessed as inhibition of EBI-beta-tubulin adduct band formation at 5 to 25 uM preincubated for 2 hrs followed by EBI addition measured after 1.5 hrs by EBI competition based Western blotting analysis; assay type: cell-based; conditions: dose 5-25 µM, time 3.5 hrs
[5] = molecular target: Tubulin; assay: Inhibition of tubulin (unknown origin) polymerization; assay type: protein-complex assay, Homo sapiens
[6] = tested on: SW480; assay: Growth inhibition of human SW480 cells incubated for 1.5 hrs by MTT assay; assay type: functional, cell-based
[7] = tested on: A2780; assay: Growth inhibition of human A2780 cells incubated for 1.5 hrs by MTT assay; assay type: functional, cell-based; conditions: A2780, 1.5 h
[8] = tested on: HCT-116; assay: Growth inhibition of human HCT-116 cells incubated for 1.5 hrs by MTT assay; assay type: functional, cell-based; conditions: HCT-116, 1.5 h
[9] = tested on: CT26; assay: Growth inhibition of CT26 cells incubated for 1.5 hrs by MTT assay; assay type: functional, cell-based; conditions: Mus musculus, CT26, 1.5 h
[10] = tested on: HeLa; assay: Growth inhibition of human HeLa cells incubated for 1.5 hrs by MTT assay; assay type: functional, cell-based
[11] = molecular target: Estrogen receptor beta (Homo sapiens, UniProt Q92731); assay: Binding affinity to human recombinant ERbeta incubated for 20 mins
[12] = tested on: MCF7; assay: Antiproliferative activity against human MCF7 cells assessed as inhibition of cell growth incubated for 24 hrs by MTT assay; assay type: functional, cell-based; conditions: MCF7, 24 h
[13] = tested on: MDA-MB-231; assay: Antiproliferative activity against human MDA-MB-231 cells assessed as inhibition of cell growth incubated for 24 hrs by MTT assay; assay type: functional, cell-based; conditions: MDA-MB-231, 24 h
[14] = tested on: HeLa; assay: Potency index, ratio of 5-fluorouracil IC50 to test compound IC50 for antiproliferative activity against human HeLa cells assessed as inhibition of cell growth; assay type: functional
[15] = tested on: HCT-116; assay: Potency index, ratio of 5-fluorouracil IC50 to test compound IC50 for antiproliferative activity against human HCT-116 cells assessed as inhibition of cell growth; assay type: functional
[16] = tested on: A2780; assay: Potency index, ratio of 5-fluorouracil IC50 to test compound IC50 for antiproliferative activity against human A2780 cells assessed as inhibition of cell growth; assay type: functional
[17] = Cytotoxicity against HEK293 cells assessed as inhibition of cell growth incubated 1.5 hrs by MTT assay; assay type: toxicity, cell-based; conditions: human
[18] = Cytotoxicity against human HUVEC cells assessed as inhibition of cell growth incubated 1.5 hrs by MTT assay; assay type: toxicity, cell-based
[19] = tested on: HCT-116; assay: Inhibition of colony formation in human HCT-116 cells at 0.1 uM incubated for 48 hrs by crystal violet staining based analysis; assay type: functional

Chain of Estrogen receptor beta (Q92731 whole entry): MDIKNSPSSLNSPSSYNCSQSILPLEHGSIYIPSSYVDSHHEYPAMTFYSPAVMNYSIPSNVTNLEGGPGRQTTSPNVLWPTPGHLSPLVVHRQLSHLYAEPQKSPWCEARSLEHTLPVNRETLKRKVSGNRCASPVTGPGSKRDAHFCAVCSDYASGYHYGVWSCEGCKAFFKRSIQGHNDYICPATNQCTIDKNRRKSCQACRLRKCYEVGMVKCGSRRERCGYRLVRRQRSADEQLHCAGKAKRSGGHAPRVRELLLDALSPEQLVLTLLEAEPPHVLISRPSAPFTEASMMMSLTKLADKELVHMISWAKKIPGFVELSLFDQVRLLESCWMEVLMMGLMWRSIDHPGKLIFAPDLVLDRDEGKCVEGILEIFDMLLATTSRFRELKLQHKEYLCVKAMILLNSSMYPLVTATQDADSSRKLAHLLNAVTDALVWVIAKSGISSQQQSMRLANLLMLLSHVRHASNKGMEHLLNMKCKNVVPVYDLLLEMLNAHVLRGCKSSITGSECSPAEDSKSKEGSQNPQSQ

SMILES | IC50 [1] | IC50 [2] | IC50 [3] | also measured
COc1ccc(C2CC(=O)c3cc(OC)c(OC)c(OC)c32)cc1Cl (stereo not drawn) | 2520 nM | 310 nM | 2130 nM | 
COc1cc2c(c(OC)c1OC)C(c1ccc(OC(C)C)cc1)CC2=O (stereo not drawn) | 4980 nM | 17300 nM | 6870 nM | 
CC[C@]1(O)C[C@H]2CN(CCc3c([nH]c4ccccc34)[C@@](C(=O)OC)(c3cc4c(cc3OC)N(C=O)[C@H]3[C@@](O)(C(=O)OC)[C@H](OC(C)=O)[C@]5(CC)C=CCN6CC[C@]43[C@@H]65)C2)C1 |  |  |  | Activity [4]: Active
COc1cc(OC)cc(C2CC(=O)c3cc(OC)c(OC)c(OC)c32)c1 (stereo not drawn) | > 100000 nM | > 100000 nM | > 100000 nM | 
COc1ccc(C2CC(=O)c3cc(OC)c(OC)c(OC)c32)cc1[N+](=O)[O-] (stereo not drawn) | 2730 nM | 1930 nM | 2220 nM | 
COc1ccc([C@H]2NC(=O)c3cc(OC)c(OC)c(OC)c32)cc1 |  |  |  | IC50 [5]: 52 µM
CCOc1ccc(C2CC(=O)c3cc(OC)c(OC)c(OC)c32)cc1Br (stereo not drawn) | 4110 nM | 8990 nM | 4990 nM | 
CCOc1ccc([C@@H]2CC(=O)c3cc(OC)c(OC)c(OC)c32)cc1F |  |  |  | IC50 [6]: 4.52 µM; IC50 [7]: 3.69 µM; IC50 [8]: 580 nM; IC50 [9]: 10.8 µM; IC50 [10]: 1050 nM
CCOc1ccc(C2CC(=O)c3cc(OC)c(OC)c(OC)c32)cc1Cl (stereo not drawn) | 2330 nM | 1860 nM | 2080 nM | 
COc1ccc(C2CC(=O)c3cc(OC)c(OC)c(OC)c32)cc1 (stereo not drawn) | 690 nM | 1880 nM | 430 nM | 
COc1ccc(C2CC(=O)c3cc(OC)c(OC)c(OC)c32)cc1F (stereo not drawn) | 700 nM | 250 nM | 600 nM | 
COc1ccc(C2CC(=O)c3cc(OC)c(OC)c(OC)c32)cc1I (stereo not drawn) | 7580 nM | 8500 nM | 7220 nM | 
COc1cc(C2CC(=O)c3cc(OC)c(OC)c(OC)c32)cc(OC)c1OC (stereo not drawn) | > 100000 nM | > 100000 nM | > 100000 nM | 
COc1ccc([C@@H]2C(=O)c3ccc(OC)cc3[C@H]2c2ccc(OCCN3CCC(C)CC3)cc2)cc1 |  |  |  | IC50 [11]: 510 nM; IC50 [12]: 7.16 µM; IC50 [13]: 3.94 µM
CCOc1ccc(C2CC(=O)c3cc(OC)c(OC)c(OC)c32)cc1F (stereo not drawn) | 510 nM | 240 nM | 370 nM | Ratio IC50 [14]: 42; IC50 [6]: 3.6 µM; IC50 [7]: 1.81 µM; Ratio IC50 [15]: 54; IC50 [8]: 350 nM; IC50 [9]: 5.24 µM; Ratio IC50 [16]: 71; IC50 [10]: 660 nM
COc1ccc([C@H]2NC(=O)c3cc(OC)cc(OC)c32)cc1 |  |  |  | IC50 [5]: > 100 µM
CCOc1ccc(C2CC(=O)c3cc(OC)c(OC)c(OC)c32)cc1 (stereo not drawn) | 710 nM | 300 nM | 480 nM | 
COc1cc2c(c(OC)c1OC)C(c1ccc(SC)cc1)CC2=O (stereo not drawn) | 2910 nM | 1820 nM | 2270 nM | 
O=c1[nH]cc(F)c(=O)[nH]1 [FLUOROURACIL] | 36300 nM |  | 15700 nM | IC50 [6]: 37.5 µM; IC50 [7]: 32.1 µM; IC50 at 1.5 h [17]: 5110 nM; IC50 at 1.5 h [18]: 0.43 µM; IC50 [9]: 59.2 µM
COc1ccc(C2CC(=O)c3cc(OC)c(OC)c(OC)c32)cc1OC (stereo not drawn) | 23900 nM | 13300 nM | 8210 nM | 
COc1ccc(C2CC(=O)c3cc(OC)c(OC)c(OC)c32)cc1Br (stereo not drawn) | 4870 nM | 800 nM | 3520 nM | 
COc1cc(C2CC(=O)c3cc(OC)c(OC)c(OC)c32)ccc1Cl (stereo not drawn) | > 100000 nM | > 100000 nM | > 100000 nM | 
COc1cc2c(c(OC)c1OC)-c1ccc(OC)c(=O)cc1[C@@H](NC(C)=O)CC2 [COLCHICINE] | 43 nM | 35 nM | 26 nM | IC50 at 1.5 h [17]: 170 nM; IC50 at 1.5 h [18]: 9.62 µM; inhibition [19]: Active
COc1cc2c(c(OC)c1OC)C(c1ccc(OC(C)(C)C)cc1)CC2=O (stereo not drawn) | 12600 nM | 15400 nM | 9150 nM | 
